Source: patent publication US20060074073A1, “Therapeutic combinations comprising poly (ADP-ribose) polymerases inhibitor” (AGOURON PHARMACEUTICALS, INC., priority 2004, published 2006)
Marks after values point to notes of the source that are not given here.

Assays:
PARP = experiment: Tumor PARP catalytic activity, 32P-NAD incorporation in SW620 tumor homogenates of treated animals; type: in vivo, mice; settings: temozolomide alone, oral gavage
Experimental: Tumours were excised and were snap frozen in liquid nitrogen and stored at −80° C. until homogenised for analysis. The specimen was defrosted on ice and the wet weight documented. The tissue was homogenised using a Pro 2000 instrument (Pro Scientific Inc, Monroe, Conn., USA) in 3 volumes (i.e. 1 mg plus 3 μl isotonic buffer −7 mM Hepes, 26 mM KCl, 0.1 mM dextran, 0.4 mM EGTA, 0.5 mM MgCl2, 45 mM sucrose, pH 7.8), giving a homogenate with an overall dilution of 1 in 4. The homogenate was kept on ice throughout the process, and homogenisation was performed in 10 second bursts to prevent undue warming of the sample. Prior to assay the samples were further diluted with isotonic buffer where necessary to give a final dilution of 1 in 40 for [^32P]NAD incorporation assay or 1 in 1000 for immunoblot aaasy.
Briefly, cells were suspended in hypotonic buffer (9 mM HEPES pH 7.8, 4.5% (v/v) dextran, 4.5 mM MgCl2 and 5 mM DTT) at 1.5×10^7/ml on ice for 30 minutes then 9 vol of isotonic buffer (40 mM HEPES pH 7.8, 130 mM KCl, 4% (v/v) dextran, 2 mM EGTA, 2.3 mM MgCl2, 225 mM sucrose and 2.5 mM DTT) was added. The reaction was started by adding 300 μl cells to 100 μl 300 μM NAD^+ containing [^32P]-NAD^+ (Amersham, UK), and terminated by the addition of 2 ml ice cold 10% (w/v) TCA+10% (w/v) sodium pyrophosphate. After 30 min on ice the precipitated ^32P—labelled ADP-ribose polymers were filtered on Whatman GC/C filters (Whatman Intemational Ltd, Kent, UK), washed 5 times with 1% (v/v) TCA/1% (v/v) sodium pyrophosphate, dried and counted. PARP inhibitory IC50 values were calculated from computer-fitted curves (GraphPad Software, Inc., San Diego, Calif.).
Tumour homogenates were assayed in a similar manner; however, the homogenisation process introduces sufficient DNA damage to maximally stimulate PARP activity and oligonucleotide was not therefore required. Results were expressed in terms of pmol PAR former per mg tumour.
Preparation of Tumour/Tissue Samples • 1. The frozen tumour samples are weighed. • 2. 3 volumes (i.e. 3 μl solution added for each 1 mg tissue) of isotonic buffer plus DTT is added to the tumour sample. This is stored on ice until and during homogenisation. • 3. The sample is homogenised on ice within a Class II cabinet for 10-second bursts until no detectable macroscopic pieces of tissue are visible. • 4. Sufficient volume of the homogenate is diluted 1 in 10 with isotonic buffer plus DTT to provide an overall dilution of 1 in 40 from the original sample. A final volume of 3 ml is sufficient for triplicate sampling and a subsequent protein assay. • 5. The diluted homogenate is stored on ice and assayed within one hour as below.
PARP Assay of Tumour/Tissue Samples • 1. ^32P 600 μM NAD solution is prepared fresh on the day of experiment as detailed above. Oligonucleotide stock is removed from storage and defrosted. • 2. Water bath is warmed to 26° C. and set to agitate at 70 oscillations per minute.
3. Reaction test tubes are set up as per table A for the QC samples and as per table B for the homogenate.
• 4. Each QC sample is assayed in triplicate, with T0, +oligo and −oligo samples ×3. (Total of 9 tubes per sample, if low cell counts −oligo samples are omitted.) Homogenates are also assayed in triplicate, with T0 and reaction samples ×3. (Total 6 tubes per sample). • 5. 2 ml ice cold 10% TCA+10% NaPPi is added to the T0 tubes prior to addition of homogenate or cells, to correct for non-specific binding of radio-label to the filter. • 6. Reaction test tubes homogenates and QC cells are warmed in the water bath to 26° C. for 7 minutes. • 7. Each preparation is vortexed briefly and the reaction is started by adding 300 μl of this to each reaction tube. • 8. The reaction is stopped exactly 6 minutes after addition of homogenate by adding 2 ml of ice cold 10% TCA+10% NaPPi and vortexing. • 9. The tube is then incubated on ice for at least one hour prior to filtration. • 10. […]

human H460 NSCLC cells = experiment: In vitro chemosensitization of standard chemotherapeutic agents; type: cell-based
SW620 xenograft = experiment: In vivo antitumor efficacy with irinotecan, SW620 xenograft; set-up: species or system mice
Excerpt: In no combination study was antagonism observed.

[1] = GI50 single agent/GI50 agent +0.4 μM Compound I (phosphate salt) instead of glucuronate salt
[2] = GI50 single agent/GI50 agent +0.4 μM compound of formula 1 as glucuronate salt

| Compound | PF50 (H460) (human H460 NSCLC cells; [2]) | further results |
| --- | --- | --- |
| Cn1nnc2c(C(N)=O)ncn2c1=O [Temozolomide, reference compound] | – | PARP Activity (%) (PARP): 100%; PF50 (H460) (human H460 NSCLC cells; [1]): 3.7^b |
| CCc1c2c(nc3ccc(OC(=O)N4CCC(N5CCCCC5)CC4)cc13)-c1cc3c(c(=O)n1C2)COC(=O)[C@]3(O)CC [irinotecan, reference compound] | – | inhibition of SW620 tumor growth as single agent (SW620 xenograft; irinotecan 25 mg/kg, QW×3 IP): did not significantly inhibit SW620 tumor growth; toxicity (SW620 xenograft; irinotecan single agent groups): No significant toxicity |
| CC[C@@]1(O)C(=O)OCc2c1cc1n(c2=O)Cc2cc3c(CN(C)C)c(O)ccc3nc2-1 [Topotecan] | 1.6 | – |
| N.N.[Cl][Pt][Cl] [Cisplatin] | 1.2 | – |
| O=C1[O][Pt]2([NH][C@@H]3CCCC[C@H]3[NH]2)[O]C1=O [Oxaliplatin] | – | PF50 (H460) (human H460 NSCLC cells; [1]): 0.98^b |
| COc1cccc2c1C(=O)c1c(O)c3c(c(O)c1C2=O)C[C@@](O)(C(=O)CO)C[C@@H]3O[C@H]1C[C@H](N)[C@H](O)[C@H](C)O1 [Doxorubicin] | 1.1 | – |
| Nc1nc2nc[nH]c2c(=S)[nH]1 [6-thioguanine] | 1.1 | – |
| CC(=O)O[C@H]1C(=O)[C@@]2(C)[C@H]([C@H](OC(=O)c3ccccc3)[C@]3(O)C[C@H](OC(=O)[C@H](O)[C@@H](NC(=O)c4ccccc4)c4ccccc4)C(C)=C1C3(C)C)[C@]1(OC(C)=O)CO[C@@H]1C[C@@H]2O [Paclitaxel] | 0.77 | – |
| Nc1ccn([C@@H]2O[C@H](CO)[C@@H](O)C2(F)F)c(=O)n1 [Gemcitabine] | 1.2 | – |
| COc1cc([C@@H]2c3cc4c(cc3[C@@H](O[C@@H]3O[C@@H]5CO[C@@H](C)O[C@H]5[C@H](O)[C@H]3O)[C@H]3COC(=O)[C@H]23)OCO4)cc(OC)c1O [Etoposide] | – | PF50 (H460) (human H460 NSCLC cells; [1]): 0.75^b |
| CCc1c2c(nc3ccc(O)cc13)-c1cc3c(c(=O)n1C2)COC(=O)[C@]3(O)CC [SN-38] | 2.2 | – |
| O=c1[nH]cc(F)c(=O)[nH]1 [5-Fluorouracil] | 0.92 | – |
